Test results from patent US10577317B2, “Crystal forms and production methods thereof” (Sunovion Pharmaceuticals Inc., priority 2017, dated 2020).
Like-named read-outs stand apart in the source and are kept apart here.

What was measured:
[1] = Solubility (mg/mL) in water, buffers, simulated fluids and organic solvents (Table 1); type: physicochemical
[2] = DVS water sorption isotherm, 25° C. scanned over 0 to 95% relative humidity (hygroscopicity); type: physicochemical
Excerpt: In various embodiments, the hygroscopicity of crystal forms of racemic amisulpride, enantiomeric amisulpride, and enantiomeric amisulpride solvates are characterized by dynamic vapor sorption (DVS). DVS is a gravimetric technique that measures how much of a solvent is absorbed by a sample by varying the vapor concentration surrounding the sample (e.g., relative humidity) and measuring the change in mass. In the present application, DVS is used to generate water sorption isotherms, which represent the equilibrium amount of vapor sorbed as a function of steady state relative vapor pressure at a constant temperature.

[3] = DVS, 25° C., 0 to 95% relative humidity

With `CCN1CCC[C@H]1CNC(=O)c1cc(S(=O)(=O)CC)c(N)cc1OC` [(S)-amisulpride Form A′, S-4-Amino-N-[(1-ethyl-2-pyrrolidinyl)methyl]-5-(ethylsulfonyl)-2-methoxybenzamide] the solubility ([1]; aqueous buffer, 0.05M Acetate Buffer, solution pH 4.5, read-out: Solubility (mg/mL): 0.05M Acetate Buffer) was over 100 mg/mL, the solubility ([1]; pH 1.1, Simulated Gastric Fluid (no enzyme), pH adjusted to 1.1 (Form A), 1.2 (Form A′), read-out: Solubility (mg/mL): Simulated Gastric Fluid (no enzyme)) was over 100 mg/mL and the solubility ([1]; pH 6.7, fassgf or other biorelevant, Simulated Intestinal Fluid (no enzyme), pH adjusted to 6.7 (Form A), 6.9 (Form A′), read-out: Solubility (mg/mL): Simulated Intestinal Fluid (no enzyme)) was over 100 mg/mL. The hygroscopicity [2, 3] was “substantially non-hygroscopic (less than a 1% maximum mass change in water sorption isotherms, at 25 °C scanned over 0 to 95% relative humidity)”, the “maximum mass change in water sorption isotherms” value [2, 3] was 0.35% and the “average maximum mass change based on the data of Tables 6B and 6C” value ([2]; DVS, Tables 6B and 6C only) was “about 0.16%”. For the same compound, the “average maximum mass change” value ([2]; DVS, average over the samples of Tables 6A-6C (Form A′) or 6D-6E (Form A)) was “about 0.22%”, the “Change Mass” value ([2]; FIG. 3D, RH 0 %, elapse time 60.72 min, sorption) was 0.00 wt % and the “Change Mass” value ([2]; FIG. 3D, RH 1 %, elapse time 32.02 min, desorption) was −0.01 wt %. The “Change Mass” value ([2]; FIG. 3D, RH 10 %, elapse time 31.00 min, desorption) was 0.01 wt %, the “Change Mass” value ([2]; FIG. 3D, RH 10 %, elapse time 33.25 min, sorption) was 0.03 wt % and the “Change Mass” value ([2]; FIG. 3D, RH 20 %, elapse time 31.89 min, sorption) was 0.05 wt %. For the same compound, the “Change Mass” value ([2]; FIG. 3D, RH 20 %, elapse time 32.05 min, desorption) was 0.03 wt %, the “Change Mass” value ([2]; FIG. 3D, RH 30 %, elapse time 32.20 min, sorption) was 0.07 wt % and the “Change Mass” value ([2]; FIG. 3D, RH 30 %, elapse time 62.67 min, desorption) was 0.05 wt %. The “Change Mass” value ([2]; FIG. 3D, RH 40 %, elapse time 31.41 min, desorption) was 0.07 wt %, the “Change Mass” value ([2]; FIG. 3D, RH 40 %, elapse time 31.53 min, sorption) was 0.09 wt % and the “Change Mass” value ([2]; FIG. 3D, RH 50 %, elapse time 31.95 min, sorption) was 0.11 wt %. The “Change Mass” value ([2]; FIG. 3D, RH 50 %, elapse time 32.12 min, desorption) was 0.08 wt %, the “Change Mass” value ([2]; FIG. 3D, RH 60 %, elapse time 31.87 min, sorption) was 0.13 wt % and the “Change Mass” value ([2]; FIG. 3D, RH 60 %, elapse time 32.10 min, desorption) was 0.11 wt %. The “Change Mass” value ([2]; FIG. 3D, RH 70 %, elapse time 31.10 min, sorption) was 0.16 wt %, the “Change Mass” value ([2]; FIG. 3D, RH 70 %, elapse time 31.50 min, desorption) was 0.14 wt % and the “Change Mass” value ([2]; FIG. 3D, RH 75 %, elapse time 31.01 min, desorption) was 0.16 wt %. The “Change Mass” value ([2]; FIG. 3D, RH 75 %, elapse time 31.28 min, sorption) was 0.18 wt %, the “Change Mass” value ([2]; FIG. 3D, RH 80 %, elapse time 31.43 min, sorption) was 0.19 wt % and the “Change Mass” value ([2]; FIG. 3D, RH 80 %, elapse time 32.11 min, desorption) was 0.17 wt %. The “Change Mass” value ([2]; FIG. 3D, RH 90 %, elapse time 31.35 min, desorption) was 0.28 wt %, the “Change Mass” value ([2]; FIG. 3D, RH 90 %, elapse time 31.97 min, sorption) was 0.25 wt % and the “Change Mass” value ([2]; FIG. 3D, RH 95 %, elapse time 32.77 min, sorption) was 0.34 wt %. For the same compound, the “Change Mass” value ([2]; FIG. 3D, RH 95 %, elapse time 36.47 min, desorption) was 0.35 wt %, the “Change Mass” value ([2]; FIG. 3E, RH 1.33 %, elapse time 60.4 min) was 0.000 wt % and the “Change Mass” value ([2]; FIG. 3E, RH 5.06 %, elapse time 923.6 min) was −0.028 wt %. For the same compound, the “Change Mass” value ([2]; FIG. 3E, RH 5.09 %, elapse time 590.9 min) was −0.004 wt %, the “Change Mass” value ([2]; FIG. 3E, RH 5.15 %, elapse time 243.7 min) was −0.010 wt % and the “Change Mass” value ([2]; FIG. 3E, RH 9.91 %, elapse time 260.3 min) was −0.006 wt %. For the same compound, the “Change Mass” value ([2]; FIG. 3E, RH 9.94 %, elapse time 598.9 min) was 0.000 wt %, the “Change Mass” value ([2]; FIG. 3E, RH 10.06 %, elapse time 582.9 min) was 0.003 wt % and the “Change Mass” value ([2]; FIG. 3E, RH 10.08 %, elapse time 915.6 min) was −0.023 wt %. The “Change Mass” value ([2]; FIG. 3E, RH 14.90 %, elapse time 606.9 min) was 0.004 wt %, the “Change Mass” value ([2]; FIG. 3E, RH 14.99 %, elapse time 270.3 min) was 0.000 wt % and the “Change Mass” value ([2]; FIG. 3E, RH 15.08 %, elapse time 574.9 min) was 0.010 wt %. For the same compound, the “Change Mass” value ([2]; FIG. 3E, RH 15.12 %, elapse time 907.6 min) was −0.017 wt %, the “Change Mass” value ([2]; FIG. 3E, RH 19.74 %, elapse time 278.3 min) was 0.006 wt % and the “Change Mass” value ([2]; FIG. 3E, RH 19.88 %, elapse time 614.9 min) was 0.009 wt %. For the same compound, the “Change Mass” value ([2]; FIG. 3E, RH 20.10 %, elapse time 566.9 min) was 0.017 wt %, the “Change Mass” value ([2]; FIG. 3E, RH 20.12 %, elapse time 899.6 min) was −0.012 wt % and the “Change Mass” value ([2]; FIG. 3E, RH 24.83 %, elapse time 623.9 min) was 0.014 wt %. For the same compound, the “Change Mass” value ([2]; FIG. 3E, RH 24.90 %, elapse time 891.6 min) was −0.007 wt %, the “Change Mass” value ([2]; FIG. 3E, RH 24.92 %, elapse time 287.8 min) was 0.013 wt % and the “Change Mass” value ([2]; FIG. 3E, RH 24.95 %, elapse time 558.9 min) was 0.024 wt %. The “Change Mass” value ([2]; FIG. 3E, RH 29.82 %, elapse time 296.8 min) was 0.019 wt %, the “Change Mass” value ([2]; FIG. 3E, RH 29.84 %, elapse time 632.9 min) was 0.019 wt % and the “Change Mass” value ([2]; FIG. 3E, RH 30.09 %, elapse time 551.4 min) was 0.031 wt %.
